Patent US10597388B2, “Pyridazinone herbicides” (FMC CORPORATION, priority 2014, dated 2020)

What was measured:
Type in all cases: in vivo
[1] = system: waterhemp_RES2 (ALS & HPPD resistant common waterhemp, Amaranthus rudis); experiment: Test E greenhouse herbicide test, postemergence
Summary of the method: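 Postemergence spray on potted plants, 1–4 leaves, 2–18 cm; greenhouse 14–21 d; visual rating vs controls, 0 (no effect) to 100 (complete control).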

[2] = system: wheat, winter (winter wheat, Triticum aestivum); experiment: Test D controlled growth environment herbicide test, pre- and postemergence
Description: (§1) Seeds of plant species selected from bluegrass (annual bluegrass, Poa annua), blackgrass (Alopecurus myosuroides), Canada thistle (Cirsium arvense), canarygrass (Phalaris minor), chickweed (common chickweed, Stellaria media), geranium, cutleaf (cutleaf geranium, Geranium dissectum), galium (catchweed bedstraw, Galium aparine), bromegrass, downy (downy bromegrass, Bromus tectorum), field poppy (Papaver rhoeas), field violet (Viola arvensis), foxtail, green (green foxtail, Setaria viridis), deadnettle (henbit deadnettle, Lamium amplexicaule), ryegrass, Italian (Italian ryegrass, Lolium multiflorum), kochia (Kochia scoparia), lambsquarters (Chenopodium album), oilseed rape (Brassica napus), pigweed (Amaranthus retroflexus), chamomile (scentless chamomile, Matricaria inodora), Russian thistle (Salsola kali), speedwell (bird's-eye speedwell, Veronica persica), barley, spring (spring barley, Hordeum vulgare), wheat, spring (spring wheat, Triticum aestivum), buckwheat, wild (wild buckwheat, Polygonum convolvulus), mustard, wild (wild mustard, Sinapis arvensis), oat, wild (wild oat, Avena fatua), radish, wild (wild radish, Raphanus raphanistrum), windgrass (Apera spica-venti), barley, winter (winter barley, Hordeum vulgare), and wheat, winter (winter wheat, Triticum aestivum) were planted into a silt loam soil and treated preemergence with test chemicals formulated in a non-phytotoxic solvent mixture which included a surfactant.
(§2) At the same time, these species were planted in pots containing Redi-Earth® planting medium (Scotts Company, 14111 Scottslawn Road, Marysville, Ohio 43041) comprising spaghnum peat moss, vermiculite, wetting agent and starter nutrients and treated with postemergence applications of the test chemicals formulated in the same manner. Plants ranged in height from 2 to 18 cm (1- to 4-leaf stage). Treated plants and controls were maintained in a controlled growth environment for 14 to 21 d after which time all species were compared to controls and visually evaluated. Plant response ratings, summarized in Table D, are based on a scale of 0 to 100 where 0 is no effect and 100 is complete control. A dash (-) response means no test result.

[3] = system: pigweed (Amaranthus retroflexus); experiment: as above
Description: as §1, §2

[4] = system: windgrass (Apera spica-venti); experiment: as above
Description: as §1, §2

[5] = system: radish, wild (wild radish, Raphanus raphanistrum); experiment: as above
Description: as §1, §2

[6] = system: field violet (Viola arvensis); experiment: as above
Description: as §1, §2

[7] = system: speedwell (bird's-eye speedwell, Veronica persica); experiment: as above
Description: as §1, §2

[8] = system: barley, winter (winter barley, Hordeum vulgare); experiment: as above
Description: as §1, §2

[9] = system: Russian thistle (Salsola kali); experiment: as above
Description: as §1, §2

[10] = system: bluegrass (annual bluegrass, Poa annua); experiment: as above
Description: as §1, §2

[11] = system: oat, wild (wild oat, Avena fatua); experiment: as above
Description: as §1, §2

[12] = Postemergence, 31 g ai/ha, scale 0 to 100 (0 no effect, 100 complete control)
[13] = Postemergence, 125 g ai/ha, visual rating on scale 0 (no effect) to 100 (complete control), 14 to 21 d
[14] = Postemergence, 250 g ai/ha, scale 0 to 100 (0 no effect, 100 complete control)
[15] = Preemergence, 62 g ai/ha, scale 0 to 100 (0 no effect, 100 complete control)
[16] = Preemergence, 125 g ai/ha, scale 0 to 100 (0 no effect, 100 complete control)
[17] = Preemergence, 250 g ai/ha, scale 0 to 100, 0 no effect, 100 complete control
[18] = postemergence, 62 g ai/ha, scale 0 to 100, 0 no effect, 100 complete control

Cn1nc(Br)c(O)c(-c2cccc3ccccc23)c1=O [Compound 20]
30: Plant response rating (scale of 0 to 100), Pigweed ([3]; Preemergence, 31 g ai/ha) | Plant response rating, Windgrass [4, 13] | Plant response rating, Windgrass [4, 18] | Plant response rating, Russian Thistle [9, 15] | Plant response rating, Bluegrass [10, 13]
45: Plant response rating, Field Violet [6, 14]
10: Plant response rating, Wheat, Winter [2, 18] | Bluegrass plant response rating [10, 12] | Plant response rating (scale of 0 to 100), Bluegrass ([10]; Preemergence, 31 g ai/ha)
20: Oat, Wild plant response rating [11, 12]
50: Plant response rating, Waterhemp_RES2 ([1]; 31 g ai/ha, visual, scale 0 no effect to 100 complete control) | Plant response rating, Waterhemp_RES2 ([1]; 62 g ai/ha, scale 0 to 100 (0 no effect, 100 complete control)) | Plant response rating, Waterhemp_RES2 ([1]; 125 g ai/ha, scale 0 to 100 (0 no effect, 100 complete control)) | Plant response rating, Windgrass [4, 16] | Radish, Wild plant response rating [5, 12] | Plant response rating, Radish, Wild [5, 16]
85: Plant response rating, Oat, Wild [11, 16]
25: Plant response rating, Wheat, Winter [2, 14] | Plant response rating, Wheat, Winter [2, 17] | Windgrass plant response rating [4, 12] | Plant response rating, Field Violet [6, 13] | Plant response rating, Field Violet [6, 16] | Plant response rating, Bluegrass [10, 16] | Plant response rating, Bluegrass [10, 18] | Plant response rating, Oat, Wild [11, 18]
75: Plant response rating, Field Violet [6, 17] | Plant response rating, Russian Thistle [9, 18] | Plant response rating, Oat, Wild [11, 14]
15: Plant response rating, Wheat, Winter [2, 13] | Plant response rating, Wheat, Winter [2, 16] | Plant response rating, Field Violet [6, 15] | Plant response rating, Field Violet [6, 18] | Plant response rating, Speedwell [7, 18] | Plant response rating, Bluegrass [10, 15]
70: Plant response rating, Radish, Wild [5, 13] | Plant response rating (scale of 0 to 100), Speedwell ([7]; Preemergence, 31 g ai/ha) | Plant response rating, Speedwell [7, 15] | Plant response rating, Speedwell [7, 16] | Russian Thistle plant response rating [9, 12] | Plant response rating, Russian Thistle [9, 17]
80: Pigweed plant response rating [3, 12] | Plant response rating, Russian Thistle [9, 13]
65: Plant response rating, Radish, Wild [5, 14] | Plant response rating, Radish, Wild [5, 17] | Plant response rating, Oat, Wild [11, 15]
98: Plant response rating, Russian Thistle [9, 14]
5: Field Violet plant response rating [6, 12] | Speedwell plant response rating [7, 12]
35: Plant response rating (scale of 0 to 100), Windgrass ([4]; Preemergence, 31 g ai/ha) | Bluegrass plant response rating [10, 17] | Plant response rating (scale of 0 to 100), Oat, Wild ([11]; Preemergence, 31 g ai/ha)
90: Plant response rating, Speedwell [7, 17]
95: Plant response rating, Oat, Wild [11, 17]
0: Wheat, Winter plant response rating [2, 12] | Plant response rating (scale of 0 to 100), Wheat, Winter ([2]; Preemergence, 31 g ai/ha) | Plant response rating, Wheat, Winter [2, 15] | Plant response rating (scale of 0 to 100), Radish, Wild ([5]; Preemergence, 31 g ai/ha) | Plant response rating, Radish, Wild [5, 15] | Plant response rating (scale of 0 to 100), Field Violet ([6]; Preemergence, 31 g ai/ha) | Plant response rating, Barley, Winter [8, 12] | Plant response rating, Barley, Winter [8, 13] | Plant response rating, Barley, Winter [8, 14] | Plant response rating (scale of 0 to 100), Barley, Winter ([8]; Preemergence, 31 g ai/ha) | Plant response rating, Barley, Winter [8, 15] | Plant response rating, Barley, Winter [8, 16] | Barley, Winter plant response rating [8, 17] | Plant response rating, Barley, Winter [8, 18] | Plant response rating (scale of 0 to 100), Russian Thistle ([9]; Preemergence, 31 g ai/ha)
60: Plant response rating, Waterhemp_RES2 ([1]; 250 g ai/ha, scale 0 to 100 (0 no effect, 100 complete control)) | Plant response rating, Windgrass [4, 17] | Plant response rating, Oat, Wild [11, 13]
40: Plant response rating, Pigweed [3, 15] | Plant response rating, Windgrass [4, 14] | Plant response rating, Windgrass [4, 15] | Plant response rating, Radish, Wild [5, 18] | Plant response rating, Russian Thistle [9, 16] | Plant response rating, Bluegrass [10, 14]
100: Plant response rating, Pigweed [3, 13] | Plant response rating, Pigweed [3, 14] | Plant response rating, Pigweed [3, 16] | Plant response rating, Pigweed [3, 17] | Plant response rating, Pigweed [3, 18] | Plant response rating, Speedwell [7, 13] | Plant response rating, Speedwell [7, 14]
